Measured values from ChEMBL document CHEMBL2429715, “Potent P-glycoprotein inhibition of emodin derivative: synthesis and biological evaluation” (Med Chem Res, 2013).

Tests used:
[1] = target: T1, ATP-dependent translocase ABCB1 (Homo sapiens, UniProt P08183); test: Inhibition of P-glycoprotein in human K562/ADR cells after 30 mins by rhodamine 123 staining-based fluorescence assay; type: cell-based; settings: 0.5 h
HCT-116 = test: Growth inhibition of human HCT116 cells at 10 uM after 48 hrs by MTT assay relative to control; type: functional; settings: HCT-116, 48 h, read-out: GI
[2] = target: T1, ATP-dependent translocase ABCB1; test: Inhibition of P-glycoprotein in human K562/ADR cells at 10 to 20 uM after 30 mins by rhodamine 123 staining-based fluorescence assay; type: cell-based; settings: 0.5 h
[3] = Growth inhibition of human QSG7701 cells at 10 uM after 48 hrs by MTT assay relative to control; settings: read-out: GI
HepG2 = test: Growth inhibition of human HepG2 cells at 10 uM after 48 hrs by MTT assay relative to control; type: functional; settings: HepG2, 48 h, read-out: GI
K562 = test: Growth inhibition of human K562 cells at 10 uM after 48 hrs by MTT assay relative to control; type: functional; settings: K562, 48 h, read-out: GI
[4] = target: T1, ATP-dependent translocase ABCB1; test: Inhibition of P-glycoprotein in human K562/ADR cells at 20 to 50 uM after 30 mins by rhodamine 123 staining-based fluorescence assay; type: cell-based; settings: 0.5 h

T1 sequence (P08183 whole entry): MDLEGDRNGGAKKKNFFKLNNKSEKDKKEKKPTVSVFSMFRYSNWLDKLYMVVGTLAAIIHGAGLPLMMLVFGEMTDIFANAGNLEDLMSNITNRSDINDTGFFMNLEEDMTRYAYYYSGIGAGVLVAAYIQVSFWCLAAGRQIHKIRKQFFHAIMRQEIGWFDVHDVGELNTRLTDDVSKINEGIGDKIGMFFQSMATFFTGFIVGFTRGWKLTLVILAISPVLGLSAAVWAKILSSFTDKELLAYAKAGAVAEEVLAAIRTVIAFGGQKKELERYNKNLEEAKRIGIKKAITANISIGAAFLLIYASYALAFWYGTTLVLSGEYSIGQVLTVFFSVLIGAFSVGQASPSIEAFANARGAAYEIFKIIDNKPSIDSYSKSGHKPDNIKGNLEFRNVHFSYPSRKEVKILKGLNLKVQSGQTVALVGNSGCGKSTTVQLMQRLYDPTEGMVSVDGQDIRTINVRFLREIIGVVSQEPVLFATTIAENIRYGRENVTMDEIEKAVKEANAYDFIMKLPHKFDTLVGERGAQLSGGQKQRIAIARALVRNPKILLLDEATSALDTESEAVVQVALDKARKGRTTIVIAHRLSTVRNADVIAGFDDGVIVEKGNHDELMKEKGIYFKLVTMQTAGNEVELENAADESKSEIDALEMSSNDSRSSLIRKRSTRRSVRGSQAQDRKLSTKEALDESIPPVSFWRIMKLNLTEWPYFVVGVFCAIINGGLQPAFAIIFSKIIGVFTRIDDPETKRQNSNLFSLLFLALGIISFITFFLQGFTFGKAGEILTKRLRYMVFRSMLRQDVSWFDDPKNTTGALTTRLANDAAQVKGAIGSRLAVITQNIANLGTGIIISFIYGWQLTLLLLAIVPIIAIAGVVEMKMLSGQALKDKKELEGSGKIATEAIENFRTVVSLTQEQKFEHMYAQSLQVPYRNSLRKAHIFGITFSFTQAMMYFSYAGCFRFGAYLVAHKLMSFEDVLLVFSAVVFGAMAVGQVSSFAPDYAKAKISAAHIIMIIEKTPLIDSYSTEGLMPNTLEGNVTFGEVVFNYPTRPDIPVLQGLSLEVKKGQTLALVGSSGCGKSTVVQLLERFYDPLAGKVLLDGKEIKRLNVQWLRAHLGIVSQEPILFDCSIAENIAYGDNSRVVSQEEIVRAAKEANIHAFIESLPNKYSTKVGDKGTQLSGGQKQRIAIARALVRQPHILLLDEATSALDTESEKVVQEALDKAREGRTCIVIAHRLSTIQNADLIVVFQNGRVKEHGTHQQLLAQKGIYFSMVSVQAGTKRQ

SMILES | inhibition (INH) [1] | inhibition (INH) [2] | inhibition (INH) [4] | inhibition of growth at 10 µM (HCT-116) | inhibition at 48 h, 10 µM [3] | inhibition of growth at 10 µM (HepG2) | inhibition of growth at 10 µM (K562)
COc1cc(OC)c2c(c1)C(=O)c1cc(CNCCCCN)cc(OC)c1C2=O.Cl.Cl |  |  | Not Active | 27.5% | 0.01% | 0.01% | 0.01%
COc1cc(OC)c2c(c1)C(=O)c1cc(CNCCN)cc(OC)c1C2=O.Cl.Cl |  |  | Not Active | 25.4% | 2.55% | 0.01% | 0.01%
O=C1c2c(O)ccc(O)c2C(=O)c2c(NCCNCCO)ccc(NCCNCCO)c21 [MITOXANTRONE] |  |  |  | 53.2% | 59% | 62.7% | 52.1%
COc1ccc(CCN(C)CCCC(C#N)(c2ccc(OC)c(OC)c2)C(C)C)cc1OC (stereo unspecified) [VERAPAMIL] |  | Active |  |  |  |  | 

The next lines start with results.

inhibition (INH) [1] | inhibition (INH) [2] | inhibition (INH) [4] | SMILES | inhibition of growth at 10 µM (HCT-116) | inhibition at 48 h, 10 µM [3] | inhibition of growth at 10 µM (HepG2) | inhibition of growth at 10 µM (K562)
Dose-dependent effect | Active |  | COc1cc(OC)c2c(c1)C(=O)c1cc(CNCCCNCCCN)cc(OC)c1C2=O.Cl | 15.3% | 0.01% | 5.85% | 0.01%
 |  | Not Active | COc1cc(OC)c2c(c1)C(=O)c1cc(CNCCCN)cc(OC)c1C2=O.Cl.Cl | 31.9% | 5.77% | 0.01% | 0.01%
